Activity calls are given as the source filed them.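 Rule for the calls: active = mean EC50 at or below 20 µM; inactive = the rest.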

The test deals with CHO-CHOP luciferase reporter, luminescence, UPR apoptotic arm. The test is described as follows: activators of PERK-eIF2a-CHOP apoptotic arm – cell-based, luciferase luminescence, set 2, counter-screen for UPR adaptive arm activator project, SAR follow-up (AID 588597). (In general: Counterscreens check selectivity or assay interference.)
Usually EC50 stands for the concentration needed to bring the measured effect to its halfway point. Turning to `O=C(Nc1cccc(Br)c1)c1cc(-c2ccncc2)nc2ccccc12`, the EC50 is > 80 µM (inactive). As to `O=C(Nc1cccc(F)c1F)c1cc(-c2ccncc2)nc2ccccc12`, the EC50 was > 80 µM (inactive). As to `O=C(Nc1ccc(F)c(F)c1)c1cc(-c2ccncc2)nc2ccccc12`, the EC50 was > 80 µM (inactive). `O=C(Nc1cccc(C(F)(F)F)c1)c1cc(-c2ccncc2)nc2ccccc12`: the EC50 was > 80 µM (inactive). The figure for `O=C(Nc1ccccc1Br)c1cc(-c2ccncc2)nc2ccccc12` is > 80 µM (inactive). As to `Cc1ccc(NC(=O)c2cc(-c3ccncc3)nc3ccccc23)cc1`, the EC50 is 8.56 µM. The entry for `O=C(Nc1ccc(Br)c(C(F)(F)F)c1)c1cc(-c2ccncc2)nc2ccccc12` is “inactive”; for `O=C(Nc1cc(F)ccc1F)c1cc(-c2ccncc2)nc2ccccc12` it is “inactive”; for `Cc1cc(NC(=O)c2cc(-c3ccncc3)nc3ccccc23)ccc1F` it is > 80 µM (inactive). `O=C(Nc1cccc(Cl)c1)c1cc(-c2ccncc2)nc2ccccc12`: the EC50 is > 80 µM (inactive). Regarding `O=C(Nc1ccc(C(F)(F)F)cc1)c1cc(-c2ccncc2)nc2ccccc12`, the EC50 was 1.99 µM. Turning to `O=C(Nc1ccc(Cl)cc1)c1cc(-c2ccncc2)nc2ccccc12`, the EC50 is 7.43 µM. For `Cc1cc(NC(=O)c2cc(-c3ccccc3)nc3ccccc23)ccc1Br`, the EC50 was > 80 µM (inactive).

Take `Cc1cccc(NC(=O)c2cc(-c3ccncc3)nc3ccccc23)c1`: the EC50 was > 80 µM (inactive). For `O=C(Nc1cccc(F)c1)c1cc(-c2ccncc2)nc2ccccc12`, the EC50 is > 80 µM (inactive). Take `Cc1cc(Br)cc(NC(=O)c2cc(-c3ccncc3)nc3ccccc23)c1`: the EC50 result was “inactive”. As for `O=C(Nc1cccc(F)c1Br)c1cc(-c2ccncc2)nc2ccccc12`, the EC50 is > 80 µM (inactive). `O=C(Nc1ccc(F)cc1)c1cc(-c2ccncc2)nc2ccccc12`: the EC50 result is “inactive”.

In the case of `COc1cccc(NC(=O)c2cc(-c3ccncc3)nc3ccccc23)c1`, the EC50 is > 80 µM (inactive). The figure for `Cc1cc(NC(=O)c2cc(-c3ccncc3)nc3ccccc23)ccc1Cl` is > 80 µM (inactive).
